Test results reported in ChEMBL document CHEMBL3046180, “Antifungal activity of some diaryl ethers” (2007).
Activity calls are given as the source filed them. The calls are words filed in the database; no cut-off is given here.

Key:
Fusarium graminearum [1] = assay: Growth inhibition of Fusarium graminearum at 50 ug/ml after 4 days by poisoned food technique; assay type: functional; details: 96 h, read-out: GI
Alternaria brassicae [2] = assay: Growth inhibition of Alternaria brassicae at 50 ug/ml after 4 days by poisoned food technique; assay type: functional; details: 96 h, read-out: GI
Pyricularia oryzae [3] = assay: Growth inhibition of Magnaporthe oryzae at 50 ug/ml after 4 days by poisoned food technique; assay type: functional; details: 96 h, read-out: GI
Alternaria alternata [4] = assay: Growth inhibition of Alternaria alternata at 500 ug/ml after 4 days by poisoned food technique; assay type: functional; details: 96 h, read-out: GI
[5] = system: Fusarium oxysporum f. sp. cucumerinum; assay: Growth inhibition of Fusarium oxysporum f. sp. cucumerinum at 500 ug/ml after 4 days by poisoned food technique; assay type: functional; details: 96 h, read-out: GI
Bipolaris sorokiniana [6] = assay: Growth inhibition of Bipolaris sorokiniana at 50 ug/ml after 4 days by poisoned food technique; assay type: functional; details: 96 h, read-out: GI
[7] = system: Fusarium oxysporum f. sp. cucumerinum; assay: Growth inhibition of Fusarium oxysporum f. sp. cucumerinum at 50 ug/ml after 4 days by poisoned food technique; assay type: functional; details: 96 h, read-out: GI
[8] = system: Fusarium oxysporum f. sp. vasinfectum; assay: Growth inhibition of Fusarium oxysporum f. sp. vasinfectum at 50 ug/ml after 4 days by poisoned food technique; assay type: functional; details: 96 h, read-out: GI
Bipolaris sorokiniana [9] = assay: Growth inhibition of Bipolaris sorokiniana at 500 ug/ml after 4 days by poisoned food technique; assay type: functional; details: 96 h, read-out: GI
Alternaria alternata [10] = assay: Growth inhibition of Alternaria alternata at 50 ug/ml after 4 days by poisoned food technique; assay type: functional; details: 96 h, read-out: GI
[11] = system: Fusarium oxysporum f. sp. vasinfectum; assay: Growth inhibition of Fusarium oxysporum f. sp. vasinfectum at 500 ug/ml after 4 days by poisoned food technique; assay type: functional; details: 96 h, read-out: GI
Alternaria brassicae [12] = assay: Growth inhibition of Alternaria brassicae at 500 ug/ml after 4 days by poisoned food technique; assay type: functional; details: 96 h, read-out: GI
Pyricularia oryzae [13] = assay: Growth inhibition of Magnaporthe oryzae at 500 ug/ml after 4 days by poisoned food technique; assay type: functional; details: 96 h, read-out: GI
Fusarium graminearum [14] = assay: Growth inhibition of Fusarium graminearum at 500 ug/ml after 4 days by poisoned food technique; assay type: functional; details: 96 h, read-out: GI
Fusarium graminearum [15] = assay: Antifungal activity against Fusarium graminearum assessed as mycelial growth inhibition at 250 to 500 ug/ml after 4 days by poisoned food technique; assay type: functional, organism-based

SMILES	inhibition of growth at 50 µg/mL (Fusarium graminearum [1])	inhibition of growth at 50 µg/mL (Alternaria brassicae [2])	inhibition of growth at 50 µg/mL (Pyricularia oryzae [3])	inhibition of growth at 500 µg/mL (Alternaria alternata [4])	inhibition of growth at 500 µg/mL [5]	inhibition of growth at 50 µg/mL (Bipolaris sorokiniana [6])	inhibition of growth at 50 µg/mL [7]	inhibition of growth at 50 µg/mL [8]	inhibition of growth at 500 µg/mL (Bipolaris sorokiniana [9])	inhibition of growth at 50 µg/mL (Alternaria alternata [10])	inhibition of growth at 500 µg/mL [11]	inhibition of growth at 500 µg/mL (Alternaria brassicae [12])	inhibition of growth at 500 µg/mL (Pyricularia oryzae [13])	inhibition of growth at 500 µg/mL (Fusarium graminearum [14])	growth inhibition (GI) (Fusarium graminearum [15])
O=[N+]([O-])c1ccccc1Oc1ccc(Cl)cc1	59.7%	61%	48.3%	71.7%	50.2%	79.9%	44.9%	40.3%	40.9%	51.8%	47.5%	74.3%	69%	73.6%	–
Cc1cccc(Oc2ccc([N+](=O)[O-])cc2)c1	62.8%	37.3%	39.2%	61.2%	64.6%	44.4%	57.9%	65.1%	32%	48.4%	74.3%	52.8%	60.3%	92.4%	–
O=[N+]([O-])c1ccccc1Oc1ccccc1	64.9%	79%	58%	95.3%	65.3%	95%	55.6%	70.1%	30.2%	62.2%	70.9%	87.9%	92%	94%	Active
N#Cc1ccccc1Oc1ccc(Cl)cc1	79.6%	56.8%	59.7%	78%	54.3%	68%	48.8%	52.5%	56.2%	55.9%	57%	74.1%	77.7%	83.7%	–
CC(C)(C)c1ccc(Oc2ccccc2C#N)cc1	38.3%	43.5%	43.7%	51%	33.3%	42.8%	20.4%	20.1%	38.4%	35.8%	44.3%	53.3%	43.1%	56%	–
O=[N+]([O-])c1ccc(Oc2ccccc2[N+](=O)[O-])cc1 [2,4'-OXYBIS(NITROBENZENE)]	66.2%	8.5%	31.4%	56.3%	33.3%	42.2%	9.3%	19.3%	35.3%	49.3%	42.7%	49.6%	47.1%	68.7%	–
CC(C)(C)c1ccc(Oc2ccc([N+](=O)[O-])cc2)cc1	55.6%	32%	32%	27.7%	10.3%	21.6%	3.6%	14.1%	23.5%	25.5%	67.7%	32%	40.4%	56%	–
